Data on nine compounds can be found in ChEMBL document CHEMBL1926644, “Novel substrate-based inhibitors of human glutamate carboxypeptidase II with enhanced lipophilicity” (J Med Chem, 2011).

The structures appear in SMILES notation.

Glutamate carboxypeptidase 2, sequence (Q04609 whole entry): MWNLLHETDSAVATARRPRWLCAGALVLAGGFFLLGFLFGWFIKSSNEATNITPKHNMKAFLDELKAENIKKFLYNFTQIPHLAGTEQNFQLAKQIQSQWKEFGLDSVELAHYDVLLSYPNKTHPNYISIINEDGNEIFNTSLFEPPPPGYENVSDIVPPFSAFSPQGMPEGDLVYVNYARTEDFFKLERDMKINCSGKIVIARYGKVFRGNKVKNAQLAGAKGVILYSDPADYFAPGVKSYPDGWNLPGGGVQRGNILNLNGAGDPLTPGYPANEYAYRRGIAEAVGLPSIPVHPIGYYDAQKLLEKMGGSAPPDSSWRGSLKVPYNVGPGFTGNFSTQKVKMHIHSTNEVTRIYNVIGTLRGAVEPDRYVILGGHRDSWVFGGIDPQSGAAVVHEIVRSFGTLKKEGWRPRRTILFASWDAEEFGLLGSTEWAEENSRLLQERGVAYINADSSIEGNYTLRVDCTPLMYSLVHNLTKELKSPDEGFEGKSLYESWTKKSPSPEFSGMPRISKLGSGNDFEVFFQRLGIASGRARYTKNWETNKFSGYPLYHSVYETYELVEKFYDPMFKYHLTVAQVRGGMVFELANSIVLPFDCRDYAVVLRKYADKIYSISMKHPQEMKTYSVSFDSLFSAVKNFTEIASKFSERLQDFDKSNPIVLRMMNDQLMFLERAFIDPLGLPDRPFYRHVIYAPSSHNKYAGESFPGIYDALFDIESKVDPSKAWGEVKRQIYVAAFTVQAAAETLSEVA

The species named for one assay is Homo sapiens. Briefly: Ratio of Km for wild type recombinant human glutamate carboxypeptidase 2 to Km for recombinant human glutamate carboxypeptidase 2 K699S mutant.
Turning to `CCCCCCCC(NC(=O)[C@H](CC(=O)O)NC(C)=O)C(=O)O` (mixture of isomers), the Ratio stood at 3.

Another assay has as its target Glutamate carboxypeptidase 2 (Homo sapiens, UniProt Q04609). Briefly: Inhibition of glutamate carboxypeptidase 2 in human LNCAP cells assessed as glutamate formation using NAAG as substrate after 60 mins by fluorometric analysis. In kind it is cell-based.
Consider `O=C(O)CNC(=O)N[C@@H](CCCCNC(=O)c1ccc(I)cc1)C(=O)O`, for which the Ki is 4390 nM.
On the same count and under the same terms, next, `CCC[C@H](NC(=O)N[C@@H](CCCCNC(=O)c1ccc(I)cc1)C(=O)O)C(=O)O`: 145 nM; `CCCCC[C@H](NC(=O)N[C@@H](CCCCNC(=O)c1ccc(I)cc1)C(=O)O)C(=O)O`: 20 nM; `C[C@H](NC(=O)N[C@@H](CCCCNC(=O)c1ccc(I)cc1)C(=O)O)C(=O)O`: 325 nM.
As to `CCCCCC[C@H](NC(=O)N[C@@H](CCCCNC(=O)c1ccc(I)cc1)C(=O)O)C(=O)O`, the Ki was determined as 72 nM.
The same measure, in the same setting: next, `CCCCCCC[C@H](NC(=O)N[C@@H](CCCCNC(=O)c1ccc(I)cc1)C(=O)O)C(=O)O`: 29 nM.
On the same count and under the same terms, next, `CC[C@H](NC(=O)N[C@@H](CCCCNC(=O)c1ccc(I)cc1)C(=O)O)C(=O)O`: 121 nM; `CCCC[C@H](NC(=O)N[C@@H](CCCCNC(=O)c1ccc(I)cc1)C(=O)O)C(=O)O`: 56 nM.

In general, Ki refers to the equilibrium dissociation constant of an inhibitor or competing ligand from its target.
